Assay results taken from the supplement of paper PMC10307832.

How the values were obtained:
Assay in all cases: relative viability (nuclei count vs DMSO), 5 days (fraction); higher = more cells survive
Seliciclib + Palbociclib = compound: CC[C@H](CO)Nc1nc(NCc2ccccc2)c2ncn(C(C)C)c2n1 [Seliciclib] + CC(=O)c1c(C)c2cnc(Nc3ccc(N4CCNCC4)cn3)nc2n(C2CCCC2)c1=O [Palbociclib] (partner 0.5 µM)
Procedure, shortened: (§1)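 A single step with final 0.05% Triton X-100, 1% formaldehyde and 1 ug/ml Hoechst fixed the cells and stained nuclei 5 days after treatment. Lung cancer cell lines in 1536-well plates had been treated by pin tool the day after seeding with one drug alone or a fixed anchor-drug dose plus five library-drug doses (not always all listed) in √10 steps, and nuclei were counted on 4× images. Relative viability is the ratio of nuclei in treated wells to nuclei in vehicle wells, taken as the median of duplicate plates.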

Seliciclib + Bortezomib = compound: CC[C@H](CO)Nc1nc(NCc2ccccc2)c2ncn(C(C)C)c2n1 [Seliciclib] + CC(C)C[C@H](NC(=O)[C@H](Cc1ccccc1)NC(=O)c1cnccn1)B(O)O [Bortezomib] (partner 0.002 µM)
Procedure, shortened: as §1

Seliciclib + Foretinib = compound: CC[C@H](CO)Nc1nc(NCc2ccccc2)c2ncn(C(C)C)c2n1 [Seliciclib] + COc1cc2c(Oc3ccc(NC(=O)C4(C(=O)Nc5ccc(F)cc5)CC4)cc3F)ccnc2cc1OCCCN1CCOCC1 [Foretinib] (partner 0.25 µM)
Procedure, shortened: as §1

Seliciclib + Pictilisib = compound: CC[C@H](CO)Nc1nc(NCc2ccccc2)c2ncn(C(C)C)c2n1 [Seliciclib] + CS(=O)(=O)N1CCN(Cc2cc3nc(-c4cccc5[nH]ncc45)nc(N4CCOCC4)c3s2)CC1 [Pictilisib] (partner 1 µM)
Procedure, shortened: as §1

Cell Line: PC-3 [JPC-3]
- relative viability (Seliciclib + Palbociclib; first compound 0.08 µM): 0.477
- relative viability (Seliciclib + Palbociclib; first compound 0.253 µM): 0.615
- relative viability (Seliciclib + Palbociclib; first compound 0.8 µM): 0.543
- relative viability (Seliciclib + Palbociclib; first compound 2.53 µM): 0.498
- relative viability (Seliciclib + Palbociclib; first compound 8 µM): 0.476
- relative viability (Seliciclib + Bortezomib; first compound 0.08 µM): 0.895
- relative viability (Seliciclib + Bortezomib; first compound 0.253 µM): 0.911
- relative viability (Seliciclib + Bortezomib; first compound 0.8 µM): 0.738
- relative viability (Seliciclib + Bortezomib; first compound 2.53 µM): 0.695
- relative viability (Seliciclib + Bortezomib; first compound 8 µM): 0.742
- relative viability (Seliciclib + Foretinib; first compound 0.08 µM): 1.07
- relative viability (Seliciclib + Foretinib; first compound 0.253 µM): 1.09
- relative viability (Seliciclib + Foretinib; first compound 0.8 µM): 0.997
- relative viability (Seliciclib + Foretinib; first compound 2.53 µM): 0.997
- relative viability (Seliciclib + Foretinib; first compound 8 µM): 0.809
- relative viability (Seliciclib + Pictilisib; first compound 0.08 µM): 0.825
- relative viability (Seliciclib + Pictilisib; first compound 0.253 µM): 0.954
- relative viability (Seliciclib + Pictilisib; first compound 0.8 µM): 0.652
- relative viability (Seliciclib + Pictilisib; first compound 2.53 µM): 0.712
- relative viability (Seliciclib + Pictilisib; first compound 8 µM): 0.652

Cell Line: PC-14
- relative viability (Seliciclib + Palbociclib; first compound 0.08 µM): 0.444
- relative viability (Seliciclib + Palbociclib; first compound 0.253 µM): 0.65
- relative viability (Seliciclib + Palbociclib; first compound 0.8 µM): 0.517
- relative viability (Seliciclib + Palbociclib; first compound 2.53 µM): 0.391
- relative viability (Seliciclib + Palbociclib; first compound 8 µM): 0.275
- relative viability (Seliciclib + Bortezomib; first compound 0.08 µM): 0.832
- relative viability (Seliciclib + Bortezomib; first compound 0.253 µM): 0.836
- relative viability (Seliciclib + Bortezomib; first compound 0.8 µM): 0.877
- relative viability (Seliciclib + Bortezomib; first compound 2.53 µM): 0.846
- relative viability (Seliciclib + Bortezomib; first compound 8 µM): 0.701
- relative viability (Seliciclib + Foretinib; first compound 0.08 µM): 0.884
- relative viability (Seliciclib + Foretinib; first compound 0.253 µM): 0.971
- relative viability (Seliciclib + Foretinib; first compound 0.8 µM): 0.902
- relative viability (Seliciclib + Foretinib; first compound 2.53 µM): 0.997
- relative viability (Seliciclib + Foretinib; first compound 8 µM): 0.843
- relative viability (Seliciclib + Pictilisib; first compound 0.08 µM): 0.622
- relative viability (Seliciclib + Pictilisib; first compound 0.253 µM): 0.67
- relative viability (Seliciclib + Pictilisib; first compound 0.8 µM): 0.69
- relative viability (Seliciclib + Pictilisib; first compound 2.53 µM): 0.808
- relative viability (Seliciclib + Pictilisib; first compound 8 µM): 0.513

Cell Line: RERF-LC-KJ
- relative viability (Seliciclib + Palbociclib; first compound 0.08 µM): 1
- relative viability (Seliciclib + Palbociclib; first compound 0.253 µM): 0.925
- relative viability (Seliciclib + Palbociclib; first compound 0.8 µM): 1.03
- relative viability (Seliciclib + Palbociclib; first compound 2.53 µM): 1.07
- relative viability (Seliciclib + Palbociclib; first compound 8 µM): 0.908
- relative viability (Seliciclib + Bortezomib; first compound 0.08 µM): 1.04
- relative viability (Seliciclib + Bortezomib; first compound 0.253 µM): 1.02
- relative viability (Seliciclib + Bortezomib; first compound 0.8 µM): 1.09
- relative viability (Seliciclib + Bortezomib; first compound 2.53 µM): 1.14
- relative viability (Seliciclib + Bortezomib; first compound 8 µM): 1.07
- relative viability (Seliciclib + Foretinib; first compound 0.08 µM): 0.828
- relative viability (Seliciclib + Foretinib; first compound 0.253 µM): 0.748
- relative viability (Seliciclib + Foretinib; first compound 0.8 µM): 0.83
- relative viability (Seliciclib + Foretinib; first compound 2.53 µM): 0.922
- relative viability (Seliciclib + Foretinib; first compound 8 µM): 0.803
- relative viability (Seliciclib + Pictilisib; first compound 0.08 µM): 0.431
- relative viability (Seliciclib + Pictilisib; first compound 0.253 µM): 0.511
- relative viability (Seliciclib + Pictilisib; first compound 0.8 µM): 0.633
- relative viability (Seliciclib + Pictilisib; first compound 2.53 µM): 0.59
- relative viability (Seliciclib + Pictilisib; first compound 8 µM): 0.443

Cell Line: SK-LU-1
- relative viability (Seliciclib + Palbociclib; first compound 0.08 µM): 0.408
- relative viability (Seliciclib + Palbociclib; first compound 0.253 µM): 0.389
- relative viability (Seliciclib + Palbociclib; first compound 0.8 µM): 0.403
- relative viability (Seliciclib + Palbociclib; first compound 2.53 µM): 0.346
- relative viability (Seliciclib + Palbociclib; first compound 8 µM): 0.313
- relative viability (Seliciclib + Bortezomib; first compound 0.08 µM): 1.07
- relative viability (Seliciclib + Bortezomib; first compound 0.253 µM): 1.23
- relative viability (Seliciclib + Bortezomib; first compound 0.8 µM): 1.3
- relative viability (Seliciclib + Bortezomib; first compound 2.53 µM): 1.08
- relative viability (Seliciclib + Bortezomib; first compound 8 µM): 0.771
- relative viability (Seliciclib + Foretinib; first compound 0.08 µM): 0.832
- relative viability (Seliciclib + Foretinib; first compound 0.253 µM): 0.785
- relative viability (Seliciclib + Foretinib; first compound 0.8 µM): 0.83
- relative viability (Seliciclib + Foretinib; first compound 2.53 µM): 0.914
- relative viability (Seliciclib + Foretinib; first compound 8 µM): 0.654
- relative viability (Seliciclib + Pictilisib; first compound 0.08 µM): 0.615
- relative viability (Seliciclib + Pictilisib; first compound 0.253 µM): 0.641
- relative viability (Seliciclib + Pictilisib; first compound 0.8 µM): 0.762
- relative viability (Seliciclib + Pictilisib; first compound 2.53 µM): 0.556
- relative viability (Seliciclib + Pictilisib; first compound 8 µM): 0.526

Cell Line: SW 1573
- relative viability (Seliciclib + Palbociclib; first compound 0.08 µM): 0.332
- relative viability (Seliciclib + Palbociclib; first compound 0.253 µM): 0.315
- relative viability (Seliciclib + Palbociclib; first compound 0.8 µM): 0.368
- relative viability (Seliciclib + Palbociclib; first compound 2.53 µM): 0.361
- relative viability (Seliciclib + Palbociclib; first compound 8 µM): 0.292
- relative viability (Seliciclib + Bortezomib; first compound 0.08 µM): 0.923
- relative viability (Seliciclib + Bortezomib; first compound 0.253 µM): 0.876
- relative viability (Seliciclib + Bortezomib; first compound 0.8 µM): 1.02
- relative viability (Seliciclib + Bortezomib; first compound 2.53 µM): 1.02
- relative viability (Seliciclib + Bortezomib; first compound 8 µM): 0.868
- relative viability (Seliciclib + Foretinib; first compound 0.08 µM): 0.879
- relative viability (Seliciclib + Foretinib; first compound 0.253 µM): 1.01
- relative viability (Seliciclib + Foretinib; first compound 0.8 µM): 0.946
- relative viability (Seliciclib + Foretinib; first compound 2.53 µM): 0.65
- relative viability (Seliciclib + Foretinib; first compound 8 µM): 0.739
- relative viability (Seliciclib + Pictilisib; first compound 0.08 µM): 0.494
- relative viability (Seliciclib + Pictilisib; first compound 0.253 µM): 0.516
- relative viability (Seliciclib + Pictilisib; first compound 0.8 µM): 0.428
- relative viability (Seliciclib + Pictilisib; first compound 2.53 µM): 0.516
- relative viability (Seliciclib + Pictilisib; first compound 8 µM): 0.474

Cell Line: UMC-11
- relative viability (Seliciclib + Palbociclib; first compound 0.08 µM): 0.317
- relative viability (Seliciclib + Palbociclib; first compound 0.253 µM): 0.27
- relative viability (Seliciclib + Palbociclib; first compound 0.8 µM): 0.325
- relative viability (Seliciclib + Palbociclib; first compound 2.53 µM): 0.312
- relative viability (Seliciclib + Palbociclib; first compound 8 µM): 0.303
- relative viability (Seliciclib + Bortezomib; first compound 0.08 µM): 0.715
- relative viability (Seliciclib + Bortezomib; first compound 0.253 µM): 0.932
- relative viability (Seliciclib + Bortezomib; first compound 0.8 µM): 0.831
- relative viability (Seliciclib + Bortezomib; first compound 2.53 µM): 0.827
- relative viability (Seliciclib + Bortezomib; first compound 8 µM): 0.529
- relative viability (Seliciclib + Foretinib; first compound 0.08 µM): 1.05
- relative viability (Seliciclib + Foretinib; first compound 0.253 µM): 0.87
- relative viability (Seliciclib + Foretinib; first compound 0.8 µM): 1.01
- relative viability (Seliciclib + Foretinib; first compound 2.53 µM): 0.939
- relative viability (Seliciclib + Foretinib; first compound 8 µM): 0.784
- relative viability (Seliciclib + Pictilisib; first compound 0.08 µM): 0.919
- relative viability (Seliciclib + Pictilisib; first compound 0.253 µM): 0.891
- relative viability (Seliciclib + Pictilisib; first compound 0.8 µM): 0.854
- relative viability (Seliciclib + Pictilisib; first compound 2.53 µM): 0.8
- relative viability (Seliciclib + Pictilisib; first compound 8 µM): 0.7
